Patent publication US12391737B2, “Soluble NPY2 receptor agonists” (Boehringer Ingelheim International GmbH, priority 2020, dated 2025)

How the values were obtained:
[1] = molecular target: T1, Human Neuropeptide Y2 Receptor (Homo sapiens, UniProt P49146); assay: Radioligand binding competition assay (RLB); conditions: Table 3, 125I-PYY(1-36) competition; read-out: Ki
T1 construct: purchased CHEMICON HTS066M
T1 sequence (P49146 1-381): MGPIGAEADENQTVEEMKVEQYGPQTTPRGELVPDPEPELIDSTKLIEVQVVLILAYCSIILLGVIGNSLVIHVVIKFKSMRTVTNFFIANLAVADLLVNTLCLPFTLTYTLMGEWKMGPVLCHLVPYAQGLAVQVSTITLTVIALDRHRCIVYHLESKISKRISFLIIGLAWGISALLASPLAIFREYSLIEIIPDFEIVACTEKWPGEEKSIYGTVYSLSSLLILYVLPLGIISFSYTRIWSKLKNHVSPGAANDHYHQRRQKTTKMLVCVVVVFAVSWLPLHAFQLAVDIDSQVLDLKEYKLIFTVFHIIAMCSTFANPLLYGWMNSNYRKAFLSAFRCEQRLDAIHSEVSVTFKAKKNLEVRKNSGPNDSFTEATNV
Procedure: The filtration RLB assay was carried out in 96-well plates in a final volume of 100 μl per well. Freeze-dried test peptides were dissolved in 100% dimethyl sulfoxide (DMSO) to stock solutions of 1 mM and serial dilutions were performed in assay buffer (50 mM HEPES, 5 mM MgCl2, 1 mM CaCl2, pH 7.4) containing 0.2% ovalbumin. […] Next, 80 μL membranes (HTS066M, ChemiSCREEN™ Human Neuropeptide Y2 Receptor Membrane Preparation, CHEMICON) were added to each well to give a final protein concentration of 0.5 μg/well. The plates were sealed and incubated at room temperature for 2 hours in a plate shaker set at 400 rpm. The incubation was stopped by vacuum filtration onto 0.5% polyethylene amine (PE) presoaked GF/C filters using a 96-well FilterMate™ harvester (Perkin Elmer) followed by four washes with 300 μl/well ice-cold wash buffer (50 mM HEPES, 500 mM NaCl, pH7.4). Filter plates were then dried for 60 min at room temperature and the bottom of the plates was sealed with backing tape UniFilter-96. Finally, 50 μl/well scintillation counter cocktail (Microscint20, Packard) was added and the radioactivity was counted in the Packard TopCount NXT scintillation counter. IC50 values (the half maximal inhibitory concentration of the agonist) were calculated by nonlinear regression analysis of sigmoidal dose-response curves.

Solubility determination = conditions: for Sol6: pH 6; for Sol7: pH 7
Procedure: Peptides (as TFA salts) were weighed out in a filter unit (Mini-UniPrep Syringeless Filter 0.45 μm, Whatman), and 0.1 M sodium diphosphate buffer at pH 6.4 or 7.0 was added to achieve 10 mg/ml final concentration. The peptide was dissolved by shaking the filter unit horizontally at 600 rpm for 2 hours at room temperature. The sample was filtered, to remove any insoluble particles and diluted to 1 mg/ml in 50% acetonitrile. The control was prepared by weighing out the corresponding peptide and dissolving it in 50% acetonitrile to final concentration of 1 mg/ml. Both the control and sample were analysed with reversed phase chromatography. The area under the peak of the sample was compared to the control and the solubility was calculated based on that ratio.
The pH was measured and recorded for each sample.
System: UltiMate 3000 UPLC, ThermoFisher
Mobile phase A: 5% acetonitrile, 95% water, 0.03% trifluoracetic acid.
Mobile phase B: 95% acetonitrile, 5% water, 0.03% trifluoracetic acid.
Gradient: 0-100% mobile phase B (2 mins.)
Column temperature: 50° C.

Ki [1]	Sol6 (Solubility determination)	Sol7 (Solubility determination)	SMILES
22.4 nM	9.7 mg/mL	9.7 mg/mL	CC(C)CC(=O)N[C@@H](C)C(=O)N1CCC[C@H]1C(=O)N[C@@H](CCC(=O)O)C(=O)N[C@@H](CCCCNC(=O)CCCCCNC(=O)CC[C@H](NC(=O)CCCCCCCCCCCCCCCCC(=O)O)C(=O)O)C(=O)N1CCC[C@H]1C(=O)N[C@@H](CCC(=O)O)C(=O)N[C@@H](CCC(=O)O)C(=O)N[C@@H](CC(=O)O)C(=O)N[C@@H](C)C(=O)N[C@H](C(=O)N1CCC[C@H]1C(=O)N[C@@H](CCC(=O)O)C(=O)N[C@@H](CCC(=O)O)C(=O)N[C@@H](CC(C)C)C(=O)N[C@@H](CCC(N)=O)C(=O)N[C@@H](CCCNC(=N)N)C(=O)N[C@@H](Cc1ccc(O)cc1)C(=O)N[C@@H](Cc1ccc(O)cc1)C(=O)N[C@H](C(=O)N1CCC[C@H]1C(=O)N[C@@H](CC(C)C)C(=O)N[C@@H](CCCNC(=N)N)C(=O)N[C@@H](Cc1c[nH]cn1)C(=O)N[C@@H](Cc1ccc(O)cc1)C(=O)N[C@@H](Cc1ccc(O)cc1)C(=O)N[C@@H](CC(N)=O)C(=O)N[C@@H](Cc1c[nH]c2ccccc12)C(=O)N[C@@H](CC(C)C)C(=O)N[C@H](C(=O)N[C@@H](CCCNC(=N)N)C(=O)N[C@@H](CCC(N)=O)C(=O)N[C@@H](CCCNC(=N)N)C(=O)N[C@@H](Cc1ccc(O)cc1)C(N)=O)[C@@H](C)O)C(C)C)[C@@H](C)O [Compound 87, N{alpha-4}-(3-methylbutanoyl)-N{epsilon-7}-(6-[(4S)-4-carboxy-4-(17-carboxyheptadecanamido)butanamido]hexanoyl)-[4A,7K,9E,13T,18Q,22V,23P,28Y,30W,31L]-hPYY(4-36)]
5.82 nM	9.7 mg/mL	9.8 mg/mL	CC(C)CC(=O)N[C@@H](C)C(=O)N1CCC[C@H]1C(=O)N[C@@H](CCC(=O)O)C(=O)N[C@@H](CCCCNC(=O)CCCCCNC(=O)CC[C@H](NC(=O)CCCCCCCCCCCCCCCCC(=O)O)C(=O)O)C(=O)N1CCC[C@H]1C(=O)N[C@@H](CCC(=O)O)C(=O)N[C@@H](CCC(=O)O)C(=O)N[C@@H](CC(=O)O)C(=O)N[C@@H](C)C(=O)N[C@@H](CCC(=O)O)C(=O)N1CCC[C@H]1C(=O)N[C@@H](CCC(=O)O)C(=O)N[C@@H](CCC(=O)O)C(=O)N[C@@H](CC(C)C)C(=O)N[C@@H](CCC(N)=O)C(=O)N[C@@H](C)C(=O)N[C@@H](Cc1ccc(O)cc1)C(=O)N[C@@H](Cc1ccc(O)cc1)C(=O)N[C@H](C(=O)N[C@@H](CO)C(=O)N[C@@H](CC(C)C)C(=O)N[C@@H](CCCNC(=N)N)C(=O)N[C@@H](Cc1c[nH]cn1)C(=O)N[C@@H](Cc1ccc(O)cc1)C(=O)N[C@@H](Cc1ccc(O)cc1)C(=O)N[C@@H](CC(N)=O)C(=O)N[C@@H](Cc1c[nH]c2ccccc12)C(=O)N[C@@H](CC(C)C)C(=O)N[C@H](C(=O)N[C@@H](CCCNC(=N)N)C(=O)N[C@@H](CCC(N)=O)C(=O)N[C@@H](CCCNC(=N)N)C(=O)N[C@@H](Cc1ccc(O)cc1)C(N)=O)[C@@H](C)O)C(C)C [Compound 169, N{alpha-4}-(3-methylbutanoyl)-N{epsilon-7}-(6-[(4S)-4-carboxy-4-(17-carboxyheptadecanamido)butanamido]hexanoyl)-[4A,7K,9E,13E,18Q,19A,22V,28Y,30W,31L]-hPYY(4-36)]
1.95 nM	8.4 mg/mL	8.4 mg/mL	CC[C@H](C)[C@H](NC(=O)[C@H](Cc1ccc(O)cc1)NC(=O)[C@H](Cc1ccc(O)cc1)NC(=O)[C@H](CCCNC(=N)N)NC(=O)[C@H](CCC(N)=O)NC(=O)[C@H](CC(C)C)NC(=O)[C@H](CCC(=O)O)NC(=O)[C@H](CCC(=O)O)NC(=O)[C@@H]1CCCN1C(=O)[C@@H](NC(=O)[C@H](C)NC(=O)[C@H](CC(=O)O)NC(=O)[C@H](CCC(=O)O)NC(=O)[C@H](CCC(=O)O)NC(=O)[C@@H]1CCCN1C(=O)[C@H](CCCCNC(=O)CCCCCNC(=O)CC[C@H](NC(=O)CCCCCCCCCCCCCCCCC(=O)O)C(=O)O)NC(=O)[C@H](C)NC(=O)[C@@H]1CCCN1C(=O)[C@H](C)NC(=O)CC(C)C)[C@@H](C)O)C(=O)N[C@@H](CO)C(=O)N[C@@H](CC(C)C)C(=O)N[C@@H](CCCNC(=N)N)C(=O)N[C@@H](Cc1c[nH]cn1)C(=O)N[C@@H](Cc1ccc(O)cc1)C(=O)N[C@@H](Cc1ccc(O)cc1)C(=O)N[C@@H](CC(N)=O)C(=O)N[C@@H](Cc1c[nH]c2ccccc12)C(=O)N[C@@H](CC(C)C)C(=O)N[C@H](C(=O)N[C@@H](CCCNC(=N)N)C(=O)N[C@@H](CCC(N)=O)C(=O)N[C@@H](CCCNC(=N)N)C(=O)N[C@@H](Cc1ccc(O)cc1)C(N)=O)[C@@H](C)O [Compound 190, N{alpha-4}-(3-methylbutanoyl)-N{epsilon-7}-(6-[(4S)-4-carboxy-4-(17-carboxyheptadecanamido)butanamido]hexanoyl)-[4A,6A,7K,9E,13T,18Q,22I,28Y,30W,31L]-hPYY(4-36)]
2.65 nM	8.9 mg/mL	8.9 mg/mL	CC[C@H](C)[C@H](NC(=O)[C@H](CCC(=O)O)NC(=O)[C@H](CCC(=O)O)NC(=O)[C@@H]1CCCN1C(=O)[C@H](CCC(N)=O)NC(=O)[C@H](C)NC(=O)[C@H](CC(=O)O)NC(=O)[C@H](CCC(=O)O)NC(=O)[C@H](CCC(=O)O)NC(=O)[C@@H]1CCCN1C(=O)[C@H](CCCCNC(=O)CCCCCNC(=O)CC[C@H](NC(=O)CCCCCCCCCCCCCCCCC(=O)O)C(=O)O)NC(=O)[C@H](CCC(=O)O)NC(=O)[C@@H]1CCCN1C(=O)[C@H](C)NC(=O)CC(C)C)C(=O)N[C@@H](CCC(N)=O)C(=O)N[C@@H](CCCNC(=N)N)C(=O)N[C@@H](Cc1ccc(O)cc1)C(=O)N[C@@H](Cc1ccc(O)cc1)C(=O)N[C@H](C(=O)N[C@@H](CO)C(=O)N[C@@H](CC(C)C)C(=O)N[C@@H](CCCNC(=N)N)C(=O)N[C@@H](Cc1c[nH]cn1)C(=O)N[C@@H](Cc1ccc(O)cc1)C(=O)N[C@@H](Cc1ccc(O)cc1)C(=O)N[C@@H](CC(N)=O)C(=O)N[C@@H](Cc1c[nH]c2ccccc12)C(=O)N[C@@H](CC(C)C)C(=O)N[C@H](C(=O)N[C@@H](CCCNC(=N)N)C(=O)N[C@@H](CCC(N)=O)C(=O)N[C@@H](CCCNC(=N)N)C(=O)N[C@@H](Cc1ccc(O)cc1)C(N)=O)[C@@H](C)O)C(C)C [Compound 81, N{alpha-4}-(3-methylbutanoyl)-N{epsilon-7}-(6-[(4S)-4-carboxy-4-(17-carboxyheptadecanamido)butanamido]hexanoyl)-[4A,7K,9E,13Q,17I,18Q,22V,28Y,30W,31L]-hPYY(4-36)]
1.53 nM	10.0 mg/mL	10.0 mg/mL	CC(C)CC(=O)N[C@@H](C)C(=O)N1CCC[C@H]1C(=O)N[C@@H](CCC(=O)O)C(=O)N[C@@H](CCCCNC(=O)CCCCCNC(=O)CC[C@H](NC(=O)CCCCCCCCCCCCCCCCC(=O)O)C(=O)O)C(=O)N1CCC[C@H]1C(=O)N[C@@H](CCC(=O)O)C(=O)N[C@@H](C)C(=O)N[C@@H](CC(=O)O)C(=O)N[C@@H](C)C(=O)N[C@@H](CO)C(=O)N1CCC[C@H]1C(=O)N[C@@H](CCC(=O)O)C(=O)N[C@@H](CCC(=O)O)C(=O)N[C@H](C(=O)N[C@@H](CCC(N)=O)C(=O)N[C@@H](CCCNC(=N)N)C(=O)N[C@@H](Cc1ccc(O)cc1)C(=O)N[C@@H](Cc1ccc(O)cc1)C(=O)N[C@H](C(=O)N[C@@H](CO)C(=O)N[C@@H](CC(C)C)C(=O)N[C@@H](CCCNC(=N)N)C(=O)N[C@@H](Cc1c[nH]cn1)C(=O)N[C@@H](Cc1ccc(O)cc1)C(=O)N[C@@H](Cc1ccc(O)cc1)C(=O)N[C@@H](CC(N)=O)C(=O)N[C@@H](Cc1c[nH]c2ccccc12)C(=O)N[C@@H](CC(C)C)C(=O)N[C@H](C(=O)N[C@@H](CCCNC(=N)N)C(=O)N[C@@H](CCC(N)=O)C(=O)N[C@@H](CCCNC(=N)N)C(=O)N[C@@H](Cc1ccc(O)cc1)C(N)=O)[C@@H](C)O)C(C)C)[C@@H](C)O [Compound 13, N{alpha-4}-(3-methylbutanoyl)-N{epsilon-7}-(6-[(4S)-4-carboxy-4-(17-carboxyheptadecanamido)butanamido]hexanoyl)[4A,7K,9E,10A,17T,18Q,22V,28Y,30W,31L]-hPYY(4-36)]
